Test results from US20220273659A1, “HETEROCYCLIC COMPOUNDS AS KINASE INHIBITORS” (NUVATION BIO INC., priority 2019, published 2022).
pIC50: −log10 of the molar value.

Legend:
[1] = molecular target: T1, CDK4 (Homo sapiens, UniProt P11802); assay: In vitro kinase inhibition IC50, luminescence (ADP Glo), retinoblastoma substrate; type: biochemical; details: read-out: CDK4/D1 IC50
T1 construct: purchased Invitrogen PR8064A
How it was run: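 CDK4 enzyme (5 nM, Invitrogen) was combined with test compound and a mix of retinoblastoma substrate (1 μM) plus ATP (25 μM) in kinase buffer, 30 μL/well in 96-well half area white plates. After 2H at room temperature, ADP Glo reagent stopped the reaction for 45 min, then detection reagent was added and luminescence was read.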

[2] = molecular target: T2, CDK6 (Homo sapiens, UniProt Q00534); assay: as above; type: biochemical; details: read-out: CDK6/D1 IC50
T2 construct: purchased Invitrogen PR8422B
T2 sequence (Q00534 whole entry): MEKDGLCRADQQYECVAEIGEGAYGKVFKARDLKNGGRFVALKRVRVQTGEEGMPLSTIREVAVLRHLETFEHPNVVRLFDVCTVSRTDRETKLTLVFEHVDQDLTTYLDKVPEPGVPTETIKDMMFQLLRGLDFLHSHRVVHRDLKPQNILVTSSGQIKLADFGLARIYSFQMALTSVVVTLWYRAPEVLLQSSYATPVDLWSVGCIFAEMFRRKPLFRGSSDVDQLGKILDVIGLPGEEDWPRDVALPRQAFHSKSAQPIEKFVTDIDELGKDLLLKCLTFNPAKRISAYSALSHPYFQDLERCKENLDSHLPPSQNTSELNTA
T2 sequence (P24385 whole entry partner): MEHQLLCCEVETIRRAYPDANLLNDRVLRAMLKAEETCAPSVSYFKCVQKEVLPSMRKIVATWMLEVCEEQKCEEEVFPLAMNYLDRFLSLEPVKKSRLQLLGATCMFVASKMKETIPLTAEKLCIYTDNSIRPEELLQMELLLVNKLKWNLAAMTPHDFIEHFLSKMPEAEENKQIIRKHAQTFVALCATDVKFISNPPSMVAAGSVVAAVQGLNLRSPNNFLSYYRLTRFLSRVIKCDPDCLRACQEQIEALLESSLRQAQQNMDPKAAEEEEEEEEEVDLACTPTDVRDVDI
How it was run: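 Recombinant CDK6 (5 nM) with retinoblastoma substrate (1 μM) and 25 μM ATP, compound at final 0.1–200 nM, incubated 2 h at room temperature. ADP formed detected by ADP-Glo luminescence. IC50 from four-parameter logistic fit of percent inhibition.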

[3] = molecular target: T3, PI3Kδ kinase (Homo sapiens, UniProt O00329); assay: PI3Kδ kinase assay (ADP-Glo, Reaction Biology); type: biochemical
T3 construct: purchased Reaction Biology Corporation (assay service)
T3 sequence (O00329 whole entry): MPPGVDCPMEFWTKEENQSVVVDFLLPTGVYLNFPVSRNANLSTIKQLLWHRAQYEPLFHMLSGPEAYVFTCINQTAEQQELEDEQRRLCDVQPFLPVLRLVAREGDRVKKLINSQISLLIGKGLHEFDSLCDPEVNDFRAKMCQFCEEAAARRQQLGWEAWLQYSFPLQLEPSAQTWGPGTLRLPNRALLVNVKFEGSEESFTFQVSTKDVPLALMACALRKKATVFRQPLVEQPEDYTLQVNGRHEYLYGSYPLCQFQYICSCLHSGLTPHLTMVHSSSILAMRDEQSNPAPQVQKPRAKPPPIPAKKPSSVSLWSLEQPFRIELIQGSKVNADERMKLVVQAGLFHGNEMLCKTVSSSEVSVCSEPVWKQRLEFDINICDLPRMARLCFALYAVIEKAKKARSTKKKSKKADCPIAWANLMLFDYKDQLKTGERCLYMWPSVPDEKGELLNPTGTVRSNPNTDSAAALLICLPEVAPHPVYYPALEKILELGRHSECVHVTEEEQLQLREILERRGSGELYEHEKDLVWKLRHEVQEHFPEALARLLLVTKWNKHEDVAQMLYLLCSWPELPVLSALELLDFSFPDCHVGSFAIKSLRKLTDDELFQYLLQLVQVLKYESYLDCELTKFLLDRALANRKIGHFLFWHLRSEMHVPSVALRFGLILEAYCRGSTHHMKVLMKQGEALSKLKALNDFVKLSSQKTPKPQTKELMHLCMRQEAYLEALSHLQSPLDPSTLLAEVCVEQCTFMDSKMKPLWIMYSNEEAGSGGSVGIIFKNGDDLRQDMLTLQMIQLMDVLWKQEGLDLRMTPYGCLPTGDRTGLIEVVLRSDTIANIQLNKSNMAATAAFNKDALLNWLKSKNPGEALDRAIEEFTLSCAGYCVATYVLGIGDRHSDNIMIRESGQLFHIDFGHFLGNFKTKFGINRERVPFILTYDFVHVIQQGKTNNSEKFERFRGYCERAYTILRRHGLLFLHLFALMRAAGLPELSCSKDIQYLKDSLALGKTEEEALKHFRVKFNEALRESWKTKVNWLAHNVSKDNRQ
T3 sequence (P27986 whole entry partner): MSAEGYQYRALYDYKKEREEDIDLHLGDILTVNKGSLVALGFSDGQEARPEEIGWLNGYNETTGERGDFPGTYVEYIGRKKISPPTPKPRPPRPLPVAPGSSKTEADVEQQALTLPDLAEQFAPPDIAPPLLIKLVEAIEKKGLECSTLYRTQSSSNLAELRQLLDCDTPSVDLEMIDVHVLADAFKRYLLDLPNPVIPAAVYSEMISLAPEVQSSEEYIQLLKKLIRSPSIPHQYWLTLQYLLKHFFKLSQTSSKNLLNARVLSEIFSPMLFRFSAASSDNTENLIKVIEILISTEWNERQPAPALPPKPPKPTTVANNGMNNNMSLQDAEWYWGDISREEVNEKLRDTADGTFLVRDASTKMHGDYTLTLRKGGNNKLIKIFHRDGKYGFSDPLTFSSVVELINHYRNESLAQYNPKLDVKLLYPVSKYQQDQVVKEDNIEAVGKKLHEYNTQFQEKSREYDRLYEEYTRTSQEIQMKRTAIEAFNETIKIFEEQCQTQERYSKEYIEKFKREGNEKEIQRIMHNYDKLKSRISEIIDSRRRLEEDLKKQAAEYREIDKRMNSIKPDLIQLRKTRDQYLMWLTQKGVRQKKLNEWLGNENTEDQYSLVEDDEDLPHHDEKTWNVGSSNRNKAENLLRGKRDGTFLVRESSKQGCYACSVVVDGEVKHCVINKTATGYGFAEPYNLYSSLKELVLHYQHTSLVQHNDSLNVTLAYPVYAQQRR
How it was run: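 Kinase in Tris-HCl 40 mM pH 7.5, MgCl2 20 mM, orthovanadate 3 mM, DTT 2 mM, 0.05% CHAPS, 1% DMSO, preincubated 10 min at room temperature with compound (about 0.5 nM–100 μM). ATP started a 30-min reaction at 30 °C. ADP-Glo luminescence converted to μM ADP via standard curve; IC50 from nonlinear regression.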

[4] = molecular target: T4, FMS kinase (Homo sapiens, UniProt P07333); assay: LanthaScreen Eu Kinase Binding Assay (ATP, fluorescent-PolyGT substrate); type: biochemical
T4 construct: purchased Invitrogen (Life Technologies)
T4 sequence (P07333 20-972): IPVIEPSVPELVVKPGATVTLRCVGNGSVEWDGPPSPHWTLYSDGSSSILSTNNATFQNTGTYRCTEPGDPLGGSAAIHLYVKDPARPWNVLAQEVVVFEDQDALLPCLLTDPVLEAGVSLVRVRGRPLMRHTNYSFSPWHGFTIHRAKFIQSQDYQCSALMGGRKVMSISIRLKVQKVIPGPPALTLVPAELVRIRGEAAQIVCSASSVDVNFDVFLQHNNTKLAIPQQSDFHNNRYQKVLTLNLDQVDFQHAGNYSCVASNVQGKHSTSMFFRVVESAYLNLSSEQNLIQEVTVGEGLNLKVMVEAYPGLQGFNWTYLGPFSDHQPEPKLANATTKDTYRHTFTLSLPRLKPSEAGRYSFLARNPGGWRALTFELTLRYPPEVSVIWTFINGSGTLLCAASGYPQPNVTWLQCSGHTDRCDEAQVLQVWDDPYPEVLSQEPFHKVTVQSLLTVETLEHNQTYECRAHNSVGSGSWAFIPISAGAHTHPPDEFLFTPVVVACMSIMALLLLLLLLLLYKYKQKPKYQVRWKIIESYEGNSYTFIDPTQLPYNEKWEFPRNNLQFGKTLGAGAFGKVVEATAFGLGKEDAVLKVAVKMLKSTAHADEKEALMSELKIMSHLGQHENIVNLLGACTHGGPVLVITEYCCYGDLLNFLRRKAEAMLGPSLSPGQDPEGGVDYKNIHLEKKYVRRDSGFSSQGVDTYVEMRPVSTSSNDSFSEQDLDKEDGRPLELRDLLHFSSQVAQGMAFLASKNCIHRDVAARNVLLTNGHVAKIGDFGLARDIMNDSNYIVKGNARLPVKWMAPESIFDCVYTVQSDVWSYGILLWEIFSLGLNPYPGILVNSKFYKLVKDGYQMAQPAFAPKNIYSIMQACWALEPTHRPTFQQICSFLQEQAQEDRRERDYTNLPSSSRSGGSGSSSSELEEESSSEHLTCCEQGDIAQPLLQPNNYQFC
How it was run: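 Kinase (1.25 nM) preincubated 10 min with 3-fold compound dilutions, then ATP 10 μM and fluorescent PolyGT substrate 200 nM added for 1 h in the dark at room temperature. Stopped with Tb-antibody (4 nM) and EDTA 20 mM; TR-FRET at 340 nm excitation, 495/520 nm emission; IC50 from four-parameter fit.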

[5] = tested on: MCF-7 breast adenocarcinoma cells; assay: Cancer cell proliferation assay, single agent (cell viability); type: cell-based; details: Homo sapiens, MCF7, Table 4; Rb positive; treatment 144 Hr with medium change at 72 Hr; Cell Titer-Glo or resazurin
How it was run: (§1)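 Cells seeded day 1, then exposed on day 2 to 7–9 compound concentrations (e.g. 1.1 nM–10 μM); BT-549 for 24 h, MCF-7 and DU4475 for 144 h with medium change at 72 h. Viability by CellTiter-Glo or resazurin; IC50 from variable-slope sigmoidal fit.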

[6] = tested on: DU4475 breast carcinoma cells; assay: as above; type: cell-based; details: Homo sapiens, DU-4475; Table 4; Rb negative; treatment 144 Hr with medium change at 72 Hr; Cell Titer-Glo or resazurin
How it was run: as §1

[7] = molecular target: T5, CDK2 (cyclin A) (Homo sapiens, UniProt P24941); assay: Z'-LYTE kinase assay; type: biochemical
T5 construct: purchased Invitrogen Life Technologies (assay service)
Protocol: IC50 values of compounds against CDK2 (cyclin A) were determined by Z′-LYTE™ These screening assays were performed at Invitrogen Life Technologies (Grand Island, N.Y.) on a low volume NBS, black 384-well plate (#4514, Corning). 0.1 μL of 100×test compound in 100% DMSO (at specific solutions) was mixed with 2.4 μL of Kinase Buffer (50 mM HEPES pH 7.5, 0.01% BRIJ-35, 10 mM MgCl2, 1 mM EGTA), 5 μL of 2× Kinase (1.22-10.3 ng CDK2/cyclin A)/Peptide (2 μM Ser/Thr 12), and 2.5 μL of 4×ATP solution (31 μM). The plates were shaken for 30 seconds, and incubated for 60 minutes at room temperature. Development Reagent Solution (5 μL of 1:1024 dilution) was added to the plates followed with another 30-second plate shake and the plates were further incubated at room temperature for one hour. The plates were read on fluorescence plate reader with Dual emission at 445 nm and 520 nm.
The following equations were used for Z′-LYTE™ Screening Assay Data Analysis. Percent inhibition (100-% activity) was fitted to the “four-parameter logistic model” in XLfit for determination of IC50 values.

[8] = molecular target: T6, CDK1 (cyclin B) (Homo sapiens, UniProt P06493); assay: Z'-LYTE kinase assay; type: biochemical; details: read-out: CDK1/B IC50
T6 construct: purchased Invitrogen Life Technologies (assay service)
T6 sequence (P06493 whole entry): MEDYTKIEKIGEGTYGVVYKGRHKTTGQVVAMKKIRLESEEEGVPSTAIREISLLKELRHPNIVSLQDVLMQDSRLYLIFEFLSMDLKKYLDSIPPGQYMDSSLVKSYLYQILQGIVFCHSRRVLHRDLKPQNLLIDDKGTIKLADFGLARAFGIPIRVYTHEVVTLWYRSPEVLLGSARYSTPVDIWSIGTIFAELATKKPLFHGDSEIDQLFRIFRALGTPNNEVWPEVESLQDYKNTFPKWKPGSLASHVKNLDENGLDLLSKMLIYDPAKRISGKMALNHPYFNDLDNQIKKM
T6 sequence (P14635 whole entry partner): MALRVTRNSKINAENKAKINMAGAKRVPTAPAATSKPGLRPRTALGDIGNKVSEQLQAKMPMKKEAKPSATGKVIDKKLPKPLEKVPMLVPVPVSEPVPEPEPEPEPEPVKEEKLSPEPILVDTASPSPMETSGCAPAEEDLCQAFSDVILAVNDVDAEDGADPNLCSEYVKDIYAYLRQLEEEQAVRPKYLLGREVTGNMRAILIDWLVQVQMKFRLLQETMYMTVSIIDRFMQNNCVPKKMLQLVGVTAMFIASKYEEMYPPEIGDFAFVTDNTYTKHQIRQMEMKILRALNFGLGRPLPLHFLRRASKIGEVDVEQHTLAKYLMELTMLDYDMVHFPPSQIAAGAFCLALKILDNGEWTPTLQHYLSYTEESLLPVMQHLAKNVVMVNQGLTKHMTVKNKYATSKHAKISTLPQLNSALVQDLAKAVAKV
Protocol: The plates were shaken for 30 seconds, and incubated for 60 minutes at room temperature. […] The plates were read on fluorescence plate reader with Dual emission at 445 nm and 520 nm.
The following equations were used for Z′-LYTE™ Screening Assay Data Analysis.

T1 sequence (P11802 whole entry): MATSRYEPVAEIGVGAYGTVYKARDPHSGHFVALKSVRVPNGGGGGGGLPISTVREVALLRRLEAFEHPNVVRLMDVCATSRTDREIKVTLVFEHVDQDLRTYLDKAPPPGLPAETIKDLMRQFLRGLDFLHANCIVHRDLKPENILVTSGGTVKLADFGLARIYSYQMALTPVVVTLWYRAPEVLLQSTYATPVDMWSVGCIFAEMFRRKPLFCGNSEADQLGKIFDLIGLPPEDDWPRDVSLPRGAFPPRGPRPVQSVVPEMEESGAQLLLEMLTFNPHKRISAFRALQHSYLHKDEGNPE
T1 sequence (P24385 whole entry partner): as the sequence (P24385 whole entry partner) above

N#Cc1cc2cnc(Nc3ccc(N4CCN5CCCC5C4)c(F)c3)nc2n(C2CCCC2)c1=O (stereo not shown) [Compound No. 55, 8-cyclopentyl-2-((3-fluoro-4-(hexahydropyrrolo[1,2-a]pyrazin-2(1H)-yl)phenyl)amino)-7-oxo-7,8-dihydropyrido[2,3-d]pyrimidine-6-carbonitrile]
pIC50 [1]: 8.19
pIC50 [2]: 7.80
pIC50 [3]: 5.77
pIC50 [4]: 9.22
pIC50 [5]: 6.32
pIC50 [6]: 5.90

N#Cc1cc2cnc(Nc3ccc(N4CCNCC4=O)c(F)c3)nc2n(C2CCCC2)c1=O [Compound No. 57, 8-cyclopentyl-2-((3-fluoro-4-(2-oxopiperazin-1-yl)phenyl)amino)-7-oxo-7,8-dihydropyrido[2,3-d]pyrimidine-6-carbonitrile]
pIC50 [1]: 8.19
pIC50 [2]: 7.92
pIC50 [3]: 6.60
pIC50 [4]: 9.00
pIC50 [5]: 5.83
pIC50 [6]: 5.29

CN1CCN(c2ccc(Nc3ncc4cc(C#N)c(=O)n(C5CCCC5)c4n3)cc2CO)CC1 [Compound No. 10, 8-cyclopentyl-2-((3-(hydroxymethyl)-4-(4-methylpiperazin-1-yl)phenyl)amino)-7-oxo-7,8-dihydropyrido[2,3-d]pyrimidine-6-carbonitrile]
pIC50 [1]: 9.00
pIC50 [2]: 9.00
pIC50 [3]: 6.51
pIC50 [4]: > 9.00
pIC50 [5]: 7.05
pIC50 [6]: 5.79

CN(C)CC(=O)N1CCC(n2cc(Nc3ncc4cc(C#N)c(=O)n(C5CCCC5)c4n3)cn2)CC1 [Compound No. 202, 8-cyclopentyl-2-((1-(1-(dimethylglycyl)piperidin-4-yl)-1H-pyrazol-4-yl)amino)-7-oxo-7,8-dihydropyrido[2,3-d]pyrimidine-6-carbonitrile]
pIC50 [1]: 7.24
pIC50 [2]: 7.59
pIC50 [3]: 7.41
pIC50 [7]: 6.81
pIC50 [5]: 6.08
pIC50 [6]: 5.42

COCCn1cc(Nc2ncc3cc(C#N)c(=O)n(C4CCCC4)c3n2)cn1 [Compound No. 104, 8-cyclopentyl-2-((1-(2-methoxyethyl)-1H-pyrazol-4-yl)amino)-7-oxo-7,8-dihydropyrido [2,3-d] pyrimidine-6-carbonitrile]
pIC50 [1]: < 6.74
pIC50 [2]: 7.25
pIC50 [3]: 7.12
pIC50 [7]: 6.85
pIC50 [5]: 5.99
pIC50 [6]: 5.60

CN1CCC(n2cc(Nc3ncc4cc(C#N)c(=O)n(C5CCCC5)c4n3)cn2)CC1 [Compound No. 325, 8-cyclopentyl-2-((1-(1-methylpiperidin-4-yl)-1H-pyrazol-4-yl)amino)-7-oxo-7,8-dihydropyrido [2,3-d] pyrimidine-6-carbonitrile]
pIC50 [1]: 7.15
pIC50 [2]: 7.44
pIC50 [3]: 7.66
pIC50 [7]: 6.42
pIC50 [5]: 6.35
pIC50 [6]: 5.62

N#Cc1cc2cnc(Nc3ccn(C4CCNCC4)c(=O)c3)nc2n(C2CCCC2)c1=O [Compound No. 60, 8-cyclopentyl-7-oxo-2-((2-oxo-1-(piperidin-4-yl)-1,2-dihydropyridin-4-yl)amino)-7,8-dihydropyrido[2,3-d]pyrimidine-6-carbonitrile]
pIC50 [1]: 7.28
pIC50 [2]: 7.26
pIC50 [3]: 7.47
pIC50 [4]: 7.74
pIC50 [5]: 5.16
pIC50 [6]: 5.29

CN(C)CC(=O)N1CCc2ccc(Nc3ncc4cc(C#N)c(=O)n(C5CCCC5)c4n3)cc2C1 [Compound No. 53, 8-cyclopentyl-2-((2-(dimethylglycyl)-1,2,3,4-tetrahydroisoquinolin-7-yl)amino)-7-oxo-7,8-dihydropyrido[2,3-d]pyrimidine-6-carbonitrile]
pIC50 [1]: 8.60
pIC50 [2]: 8.40
pIC50 [3]: 6.60
pIC50 [4]: 8.02
pIC50 [5]: 6.72
pIC50 [6]: 5.89

CN(C)CCn1cc(Nc2ncc3cc(C#N)c(=O)n(C4CCCC4)c3n2)cn1 [Compound No. 105, 8-cyclopentyl-2-((1-(2-(dimethylamino)ethyl)-1H-pyrazol-4-yl)amino)-7-oxo-7,8-dihydropyrido[2,3-d]pyrimidine-6-carbonitrile]
pIC50 [1]: 7.16
pIC50 [2]: 7.47
pIC50 [3]: 6.34
pIC50 [8]: < 5.47
pIC50 [5]: 6.17
pIC50 [6]: 5.42

N#Cc1cc2cnc(Nc3ccc(N4CCN5CCCCC5C4)c(F)c3)nc2n(C2CCCC2)c1=O (stereo not shown) [Compound No. 59, 8-cyclopentyl-2-((3-fluoro-4-(octahydro-2H-pyrido[1,2-a]pyrazin-2-yl)phenyl)amino)-7-oxo-7,8-dihydropyrido[2,3-d]pyrimidine-6-carbonitrile]
pIC50 [1]: 8.22
pIC50 [2]: 7.66
pIC50 [3]: 5.88
pIC50 [4]: 9.00
pIC50 [5]: 6.27
pIC50 [6]: 5.88

CN(C)CC(=O)N1CCc2cc(Nc3ncc4cc(C#N)c(=O)n(C5CCCC5)c4n3)ccc2C1 [Compound No. 54, 8-cyclopentyl-2-((2-(dimethylglycyl)-1,2,3,4-tetrahydroisoquinolin-6-yl)amino)-7-oxo-7,8-dihydropyrido[2,3-d]pyrimidine-6-carbonitrile]
pIC50 [1]: 8.52
pIC50 [2]: 8.46
pIC50 [3]: 6.61
pIC50 [4]: 8.15
pIC50 [5]: 6.82
pIC50 [6]: 5.96

CN1CCC(c2ccc(Nc3ncc4cc(C#N)c(=O)n(C5CCCC5)c4n3)cc2)CC1 [Compound No. 40, 8-cyclopentyl-2-((4-(1-methylpiperidin-4-yl)phenyl)amino)-7-oxo-7,8-dihydropyrido[2,3-d]pyrimidine-6-carbonitrile]
pIC50 [1]: < 6.70
pIC50 [2]: 7.12
pIC50 [3]: 6.38
pIC50 [4]: 9.00
pIC50 [5]: 6.88
pIC50 [6]: 5.55

CC(c1ccccc1)n1c(=O)c(C#N)cc2cnc(Nc3ccc(N4CCN(C)CC4)cc3)nc21 (stereo not shown) [Compound No. 35, 2-((4-(4-methylpiperazin-1-yl)phenyl)amino)-7-oxo-8-(1-phenylethyl)-7,8-dihydropyrido[2,3-d]pyrimidine-6-carbonitrile]
pIC50 [1]: < 6.70
pIC50 [2]: 7.04
pIC50 [3]: 6.13
pIC50 [4]: 8.15
pIC50 [5]: 5.41

N#Cc1cc2cnc(Nc3nc(C4CCNCC4)cs3)nc2n(C2CCCC2)c1=O [Compound No. 327, 8-cyclopentyl-7-oxo-2-((4-(piperidin-4-yl)thiazol-2-yl)amino)-7,8-dihydropyrido [2,3-d] pyrimidine-6-carbonitrile]
pIC50 [1]: 7.59
pIC50 [2]: 8.05
pIC50 [3]: 5.25
pIC50 [8]: < 5.30
pIC50 [5]: 6.19
pIC50 [6]: 5.77

CN1CCC(c2ccc(Nc3ncc4cc(C#N)c(=O)n(C5CCCC5)c4n3)cc2F)CC1 [Compound No. 46, 8-cyclopentyl-2-((3-fluoro-4-(1-methylpiperidin-4-yl)phenyl)amino)-7-oxo-7,8-dihydropyrido[2,3-d]pyrimidine-6-carbonitrile]
pIC50 [1]: 7.82
pIC50 [2]: 8.30
pIC50 [3]: 6.18
pIC50 [4]: 8.60
pIC50 [5]: 6.56

N#Cc1cc2cnc(Nc3ccc(C4CCNCC4)cc3)nc2n(C2CCCC2)c1=O [Compound No. 37, 8-cyclopentyl-7-oxo-2-((4-(piperidin-4-yl)phenyl)amino)-7,8-dihydropyrido[2,3-d]pyrimidine-6-carbonitrile]
pIC50 [1]: 8.19
pIC50 [2]: 8.60
pIC50 [3]: 7.19
pIC50 [4]: 8.24
pIC50 [5]: 6.45
pIC50 [6]: 5.65
